Laboratory results as given in ChEMBL document CHEMBL1134903, “Synthesis and SAR of azalide 3,6-ketal aromatic derivatives as potent Gram-positive and Gram-negative antibacterial agents” (Bioorg Med Chem Lett, 2002).
In brackets after ≈: the same amount, converted by molar mass.

How the values were obtained:
Assay type in all cases: functional
Escherichia coli = assay: Minimum inhibitory concentration against Escherichia coli
Pasteurella multocida = assay: Minimum inhibitory concentration against Pasteurella multocida
Staphylococcus aureus [1] = assay: Effective dose required to inhibit Staphylococcus aureus intraperitoneal (IP) infection model
Staphylococcus aureus [2] = assay: Minimum inhibitory concentration against Staphylococcus aureus
Staphylococcus aureus [3] = assay: Colony forming units of Staphylococcus aureus intramammary infection (IMI) model was determined at a dose of 15 mg/kg

Compound | MIC (Escherichia coli) [µg/mL] | MIC (Pasteurella multocida) [µg/mL] | ED50 (Staphylococcus aureus [1]) [mg/kg] | MIC (Staphylococcus aureus [2]) [µg/mL] | MIC (Staphylococcus aureus [1]) [µg/mL] | Log CFU (Staphylococcus aureus [3])
CC[C@H]1OC(=O)[C@H](C)[C@H]2OC3(CCN(C(=O)c4c[nH]c5ccccc45)CC3)O[C@](C)(C[C@@H](C)CN[C@H](C)[C@@H](O)[C@]1(C)O)[C@H](O[C@@H]1O[C@H](C)C[C@H](N(C)C)[C@H]1O)[C@H]2C | 6.25 (≈ 7.8 µM) | 0.1 (≈ 0.125 µM) | 11 | 0.39 (≈ 0.487 µM) | – | –
CC[C@H]1OC(=O)[C@H](C)[C@H]2OC3(CCN(C(=O)c4cc5ccccc5[nH]4)CC3)O[C@](C)(C[C@@H](C)CN[C@H](C)[C@@H](O)[C@]1(C)O)[C@H](O[C@@H]1O[C@H](C)C[C@H](N(C)C)[C@H]1O)[C@H]2C | 3.13 (≈ 3.91 µM) | 0.1 (≈ 0.125 µM) | > 20 | 0.78 (≈ 0.974 µM) | – | –
CC[C@H]1OC(=O)[C@H](C)[C@H]2OC3(CCN(C(=O)c4cnc5ccccc5c4)CC3)O[C@](C)(C[C@@H](C)CN(C)[C@H](C)[C@@H](O)[C@]1(C)O)[C@H](O[C@@H]1O[C@H](C)C[C@H](N(C)C)[C@H]1O)[C@H]2C | 6.25 (≈ 7.56 µM) | 0.1 (≈ 0.121 µM) | > 20 | 0.39 (≈ 0.472 µM) | – | –
CC[C@H]1OC(=O)[C@H](C)[C@H]2OC3(CCN(Cc4ccc(-c5ccccc5)cc4)CC3)O[C@](C)(C[C@@H](C)CN(C)[C@H](C)[C@@H](O)[C@]1(C)O)[C@H](O[C@@H]1O[C@H](C)C[C@H](N(C)C)[C@H]1O)[C@H]2C | 1.56 (≈ 1.86 µM) | 0.1 (≈ 0.119 µM) | > 20 | 0.2 (≈ 0.239 µM) | – | –
CC[C@H]1OC(=O)[C@H](C)[C@H]2OC3(CCN(C(=O)c4cncc(Cl)c4Cl)CC3)O[C@](C)(C[C@@H](C)CN[C@H](C)[C@@H](O)[C@]1(C)O)[C@H](O[C@@H]1O[C@H](C)C[C@H](N(C)C)[C@H]1O)[C@H]2C | 3.13 (≈ 3.76 µM) | 0.1 (≈ 0.12 µM) | > 20 | 3.13 (≈ 3.76 µM) | – | –
CC[C@H]1OC(=O)[C@H](C)[C@H]2OC3(CCN(C(=O)c4occc4C)CC3)O[C@](C)(C[C@@H](C)CN[C@H](C)[C@@H](O)[C@]1(C)O)[C@H](O[C@@H]1O[C@H](C)C[C@H](N(C)C)[C@H]1O)[C@H]2C | 1.56 (≈ 2.04 µM) | 0.1 (≈ 0.131 µM) | > 20 | 0.78 (≈ 1.02 µM) | – | –
CC[C@H]1OC(=O)[C@H](C)[C@H]2OC3(CCN(CCc4ccc(C#N)cc4)CC3)O[C@](C)(C[C@@H](C)CN(C)[C@H](C)[C@@H](O)[C@]1(C)O)[C@H](O[C@@H]1O[C@H](C)C[C@H](N(C)C)[C@H]1O)[C@H]2C | 0.39 (≈ 0.487 µM) | 0.03 (≈ 0.0374 µM) | 22 | 0.78 (≈ 0.974 µM) | – | –
CC[C@H]1OC(=O)[C@H](C)[C@H]2OC3(CCN(CCc4ccoc4)CC3)O[C@](C)(C[C@@H](C)CN(C)[C@H](C)[C@@H](O)[C@]1(C)O)[C@H](O[C@@H]1O[C@H](C)C[C@H](N(C)C)[C@H]1O)[C@H]2C | 0.2 (≈ 0.261 µM) | 0.03 (≈ 0.0392 µM) | – | – | – | –
CC[C@H]1OC(=O)[C@H](C)[C@H]2OC3(CCN(CCc4cccc(OC)c4)CC3)O[C@](C)(C[C@@H](C)CN(C)[C@H](C)[C@@H](O)[C@]1(C)O)[C@H](O[C@@H]1O[C@H](C)C[C@H](N(C)C)[C@H]1O)[C@H]2C | 0.2 (≈ 0.248 µM) | 0.03 (≈ 0.0372 µM) | > 20 | 0.6 (≈ 0.744 µM) | – | –
CC[C@H]1OC(=O)[C@H](C)[C@H]2OC3(CCN(CCc4ccnc5ccccc45)CC3)O[C@](C)(C[C@@H](C)CN(C)[C@H](C)[C@@H](O)[C@]1(C)O)[C@H](O[C@@H]1O[C@H](C)C[C@H](N(C)C)[C@H]1O)[C@H]2C | 1.56 (≈ 1.89 µM) | 0.05 (≈ 0.0605 µM) | > 20 | 0.39 (≈ 0.472 µM) | – | –
CC[C@H]1OC(=O)[C@H](C)[C@H]2OC3(CCN(C(=O)c4cccs4)CC3)O[C@](C)(C[C@@H](C)CN(C)[C@H](C)[C@@H](O)[C@]1(C)O)[C@H](O[C@@H]1O[C@H](C)C[C@H](N(C)C)[C@H]1O)[C@H]2C | 1.56 (≈ 1.99 µM) | 0.05 (≈ 0.0639 µM) | – | – | > 20 | –
CC[C@H]1OC(=O)[C@H](C)[C@H]2OC3(CCN(C(=O)c4ccc(-c5ccccc5)cc4)CC3)O[C@](C)(C[C@@H](C)CN[C@H](C)[C@@H](O)[C@]1(C)O)[C@H](O[C@@H]1O[C@H](C)C[C@H](N(C)C)[C@H]1O)[C@H]2C | 6.25 (≈ 7.46 µM) | 0.2 (≈ 0.239 µM) | – | 0.78 (≈ 0.931 µM) | – | –
CC[C@H]1OC(=O)[C@H](C)[C@H]2OC3(CCN(CCc4ccc(Cl)c(Cl)c4)CC3)O[C@](C)(C[C@@H](C)CN[C@H](C)[C@@H](O)[C@]1(C)O)[C@H](O[C@@H]1O[C@H](C)C[C@H](N(C)C)[C@H]1O)[C@H]2C | 3.13 (≈ 3.77 µM) | 0.05 (≈ 0.0602 µM) | – | 0.39 (≈ 0.469 µM) | – | –
CC[C@H]1OC(=O)[C@H](C)[C@H]2OC3(CCN(Cc4ccncc4)CC3)O[C@](C)(C[C@@H](C)CN[C@H](C)[C@@H](O)[C@]1(C)O)[C@H](O[C@@H]1O[C@H](C)C[C@H](N(C)C)[C@H]1O)[C@H]2C | 0.78 (≈ 1.04 µM) | 0.03 (≈ 0.0401 µM) | 6.4 | 1.56 (≈ 2.08 µM) | – | –
CC[C@H]1OC(=O)[C@H](C)[C@H]2OC3(CCN(CCc4ccc(OC)cc4)CC3)O[C@](C)(C[C@@H](C)CN[C@H](C)[C@@H](O)[C@]1(C)O)[C@H](O[C@@H]1O[C@H](C)C[C@H](N(C)C)[C@H]1O)[C@H]2C | 0.2 (≈ 0.253 µM) | 0.01 (≈ 0.0126 µM) | – | 0.2 (≈ 0.253 µM) | – | –
CC[C@H]1OC(=O)[C@H](C)[C@H]2OC3(CCN(C(=O)c4ccccc4)CC3)O[C@](C)(C[C@@H](C)CN(C)[C@H](C)[C@@H](O)[C@]1(C)O)[C@H](O[C@@H]1O[C@H](C)C[C@H](N(C)C)[C@H]1O)[C@H]2C | 3.13 (≈ 4.03 µM) | 0.1 (≈ 0.129 µM) | – | – | – | –
CC[C@H]1OC(=O)[C@H](C)[C@H]2OC3(CCN(Cc4cccnc4)CC3)O[C@](C)(C[C@@H](C)CN(C)[C@H](C)[C@@H](O)[C@]1(C)O)[C@H](O[C@@H]1O[C@H](C)C[C@H](N(C)C)[C@H]1O)[C@H]2C | 0.39 (≈ 0.511 µM) | 0.03 (≈ 0.0393 µM) | > 20 | 0.78 (≈ 1.02 µM) | – | –
CC[C@H]1OC(=O)[C@H](C)[C@H]2OC3(CCN(CCc4ccccc4)CC3)O[C@](C)(C[C@@H](C)CN(C)[C@H](C)[C@@H](O)[C@]1(C)O)[C@H](O[C@@H]1O[C@H](C)C[C@H](N(C)C)[C@H]1O)[C@H]2C | 0.075 (≈ 0.0966 µM) | 0.02 (≈ 0.0258 µM) | > 20 | – | – | 7.3
CC[C@H]1OC(=O)[C@H](C)[C@H]2OC3(CCN(CCc4ccc(Cl)c(Cl)c4)CC3)O[C@](C)(C[C@@H](C)CN(C)[C@H](C)[C@@H](O)[C@]1(C)O)[C@H](O[C@@H]1O[C@H](C)C[C@H](N(C)C)[C@H]1O)[C@H]2C | 50 (≈ 59.2 µM) | 0.05 (≈ 0.0592 µM) | – | 0.2 (≈ 0.237 µM) | – | –
CC[C@H]1OC(=O)[C@H](C)[C@H]2OC3(CCN(CCc4ccccc4OC)CC3)O[C@](C)(C[C@@H](C)CN(C)[C@H](C)[C@@H](O)[C@]1(C)O)[C@H](O[C@@H]1O[C@H](C)C[C@H](N(C)C)[C@H]1O)[C@H]2C | 0.1 (≈ 0.124 µM) | 0.03 (≈ 0.0372 µM) | > 20 | 0.39 (≈ 0.484 µM) | – | –
CC[C@H]1OC(=O)[C@H](C)[C@H]2OC3(CCN(CCc4ccc5ccccc5n4)CC3)O[C@](C)(C[C@@H](C)CN(C)[C@H](C)[C@@H](O)[C@]1(C)O)[C@H](O[C@@H]1O[C@H](C)C[C@H](N(C)C)[C@H]1O)[C@H]2C | 0.78 (≈ 0.943 µM) | 0.03 (≈ 0.0363 µM) | > 20 | 0.39 (≈ 0.472 µM) | – | –
CC[C@H]1OC(=O)[C@H](C)[C@H]2OC3(CCN(CCc4ccccc4)CC3)O[C@](C)(C[C@@H](C)CN[C@H](C)[C@@H](O)[C@]1(C)O)[C@H](O[C@@H]1O[C@H](C)C[C@H](N(C)C)[C@H]1O)[C@H]2C | 0.1 (≈ 0.131 µM) | 0.03 (≈ 0.0394 µM) | > 20 | 0.39 (≈ 0.512 µM) | – | –
CC[C@H]1OC(=O)[C@H](C)[C@H]2OC3(CCN(CCc4ccc(Cl)cc4)CC3)O[C@](C)(C[C@@H](C)CN[C@H](C)[C@@H](O)[C@]1(C)O)[C@H](O[C@@H]1O[C@H](C)C[C@H](N(C)C)[C@H]1O)[C@H]2C | 0.2 (≈ 0.251 µM) | 0.01 (≈ 0.0126 µM) | – | – | – | –
CC[C@H]1OC(=O)[C@H](C)[C@H]2OC3(CCN(CCc4ccc(NC(C)=O)cc4)CC3)O[C@](C)(C[C@@H](C)CN(C)[C@H](C)[C@@H](O)[C@]1(C)O)[C@H](O[C@@H]1O[C@H](C)C[C@H](N(C)C)[C@H]1O)[C@H]2C | 0.39 (≈ 0.468 µM) | 0.05 (≈ 0.06 µM) | 9.6 | – | – | 9.7
CC[C@H]1OC(=O)[C@H](C)[C@H]2OC3(CCN(C(=O)c4cccn4C)CC3)O[C@](C)(C[C@@H](C)CN[C@H](C)[C@@H](O)[C@]1(C)O)[C@H](O[C@@H]1O[C@H](C)C[C@H](N(C)C)[C@H]1O)[C@H]2C | 1.56 (≈ 2.04 µM) | 0.1 (≈ 0.131 µM) | 19 | 0.78 (≈ 1.02 µM) | – | 2.4
CC[C@H]1OC(=O)[C@H](C)[C@H]2OC3(CCN(CCc4ccccc4OC)CC3)O[C@](C)(C[C@@H](C)CN[C@H](C)[C@@H](O)[C@]1(C)O)[C@H](O[C@@H]1O[C@H](C)C[C@H](N(C)C)[C@H]1O)[C@H]2C | 0.1 (≈ 0.126 µM) | 0.03 (≈ 0.0379 µM) | – | 0.39 (≈ 0.492 µM) | – | –
CC[C@H]1OC(=O)[C@H](C)[C@H]2OC3(CCN(CCc4ccnc5ccccc45)CC3)O[C@](C)(C[C@@H](C)CN[C@H](C)[C@@H](O)[C@]1(C)O)[C@H](O[C@@H]1O[C@H](C)C[C@H](N(C)C)[C@H]1O)[C@H]2C | 1.56 (≈ 1.92 µM) | 0.05 (≈ 0.0615 µM) | > 20 | 0.2 (≈ 0.246 µM) | – | –
CC[C@H]1OC(=O)[C@H](C)[C@H]2OC3(CCN(C(=O)c4ccco4)CC3)O[C@](C)(C[C@@H](C)CN(C)[C@H](C)[C@@H](O)[C@]1(C)O)[C@H](O[C@@H]1O[C@H](C)C[C@H](N(C)C)[C@H]1O)[C@H]2C | 0.78 (≈ 1.02 µM) | 0.05 (≈ 0.0653 µM) | > 20 | – | – | 3.3
CC[C@H]1OC(=O)[C@H](C)[C@H]2OC3(CCNCC3)O[C@](C)(C[C@@H](C)CN(C)[C@H](C)[C@@H](O)[C@]1(C)O)[C@H](O[C@@H]1O[C@H](C)C[C@H](N(C)C)[C@H]1O)[C@H]2C | 0.2 (≈ 0.298 µM) | 0.05 (≈ 0.0744 µM) | – | 6.25 (≈ 9.3 µM) | – | –
CC[C@H]1OC(=O)[C@H](C)[C@H]2OC3(CCN(CCc4cccc(OC)c4)CC3)O[C@](C)(C[C@@H](C)CN[C@H](C)[C@@H](O)[C@]1(C)O)[C@H](O[C@@H]1O[C@H](C)C[C@H](N(C)C)[C@H]1O)[C@H]2C | 0.3 (≈ 0.379 µM) | 0.03 (≈ 0.0379 µM) | – | 0.39 (≈ 0.492 µM) | – | –
